Reference: US4281009A, “Hydantoin derivatives” (Nippon Zoki Pharmaceutical Co., Ltd., priority 1978, dated 1981)

Tests used:
isolated duodenum = experiment: Recovery of acetylcholine sensitivity of isolated duodenum of SART stress mice (Magnus method); type: in vivo, mice (dd-strain male); details: 6th day, Ach 10^-7 g/ml, Average ± S.E.
Source text: (§1) SART stress animals used in the tests described below were raised according to a method of Kita, et al. [Folia Pharmacol. Japan.: 71, 195-210 (1975)].
3. Effect of recovering acetylcholine (Ach) sensitivity of isolated intestinal tract:
Groups each comprising at least 10 dd-strain male mice were used. The compounds of the present invention or other comparative drugs were given intraperitoneally once a day during the stress-causing operation. On the 6th day, Ach (10^-7 g/ml.) sensitivity of isolated duodenum was examined using the Magnus method.

SART stress mice = experiment: Inhibitory effects on increase of heart rate and elongation of QRS-time in SART stress mice; type: in vivo, mice (dd-strain male); details: 9th day, Average ± S.D.
Experimental: as §1
2. Inhibitory effects on increase of heart rate and elongation of QRS-time in stress animals:
Groups of mice each comprising 11 or 12 dd-strain male mice were divided into three groups in the same manner as above and heart rate and QRS-time were determined on the 9th day after initiation of the tests.

ddY-strain male mice = experiment: Effect of prolongation of sleeping time (hexobarbital); type: in vivo; details: for change in vivo at 100 mg/kg / change in vivo at 300 mg/kg: Mus musculus, ip; for change in vivo at 100 mg/kg: 100 mg/kg intraperitoneal; for change in vivo at 300 mg/kg: 300 mg/kg intraperitoneal
Experimental: 7. Effect of prolongation of sleeping time:
Groups of mice each comprising 10 ddY-strain male mice were used. Sodium salt of hexobarbital was given intraperitoneally. Thereafter, the period of time in which righting reflex disappeared was measured. The effect was evaluated on the basis of prolongation of time of disappearance of righting reflex by the intraperitoneal administration of the compounds of the present invention as compared with control mice.

[1] = tested on: normal mice and SART stress mice; experiment: Analgesic effect, acetic acid writhing method; type: in vivo; details: Mus musculus, sc, 100 mg/Kg subcutaneously
Experimental: 5.2. Acetic acid writhing method: 0.1 ml./10 g of isotonic sodium chloride solution containing 0.7% acetic acid was given intraperitoneally to groups of mice each comprising 5 normal mice and 5 SART stress mice to which SART stress had been applied for 8 days. Writhing syndromes number appeared for 15 minutes after the administration was measured. The effect was evaluated by giving 100 mg/Kg of the compounds of the present invention or DPH subcutaneously and comparing the writhing syndromes number of the mice with that of control mice.

[2] = tested on: normal mice and SART stress mice; experiment: Analgesic effect, D'Amour-Smith method; type: in vivo, mice (ddY-strain male); details: Mus musculus, ip, intraperitoneal 100 mg/kg
Experimental: 5.3. D'Amour-Smith method:
Groups each comprising 10 ddY-strain male normal mice and SART stress mice to which SART stress had been applied for 4 days were used. The root of the tail of the mouse to which black ink was applied was irradiated with infrared rays for up to 15 seconds. Time required till escape response was observed was measured. The effect was shown by the ratio of the mice in which an average value of the response time at 30, 60, 90 and 120 minutes after the administration of the compounds of the present invention or other comparative drugs was prolonged to at least 2 times as long as the time before the administration.

[3] = Acute toxicity test (LD50, Litchfield-Wilcoxon), mice; details: mouse, in vivo, ip, intraperitoneal
Experimental: (§2) Toxicity tests were carried out by intraperitoneal administration of the compound of the present invention to groups each comprising 10 ICR-strain mice and SD-strain rats. LD50 was calculated by the Litchfield-Wilcoxon method based on the number of death 72 hours after the administration.

[4] = tested on: normal mice and SART stress mice; experiment: Analgesic effect, tail pressure method (Randall-Selitto's device); type: in vivo, mice (ddY-strain male); details: 60 minutes; for change in vivo at 100 mg/kg: Mus musculus, ip, 1 h, intraperitoneal 100 mg/kg; for Analgesic effect: intraperitoneal 50 mg/kg
Experimental: 5.1 Tail pressure method:
Randall-Selitto's device for determining analgesic effect by pressure stimulation was used. […]. The compounds of the present invention or other comparative drugs were given thereto and analgesic effect was determined. The effect was judged by measuring pressure applied 60 minutes after the intraperitoneal administration of the compounds of the present invention. The pressure thus measured was divided by a pressure before the administration. The value thus obtained was compared with that of a control group (to which 10 ml./Kg of 0.5% sodium salt of carboxymethylcellulose or 0.5% Tween 80 was given). When the compounds of the present invention were given perorally and other comparative drugs were given, an average of the pressure at 30, 60, 90 and 120 minutes after the administration was employed for evaluating the effect.

[5] = Acute toxicity test (LD50, Litchfield-Wilcoxon), rats; details: rat, in vivo, ip, intraperitoneal
Experimental: as §2

Wistar-strain male rats = experiment: Antiulcerogenic effect on Shay's ulcer (operative ulcer); type: in vivo; details: 150 mg/kg intraperitoneal, 10 times
Experimental: 6.2. Antiulcerogenic effect on Shay's ulcer (operative ulcer):
Tests were carried out by using groups of rats each comprising 5-10 Wistar-strain male rats according to Shay method [Shay Harry; Gastroenterology,; 5, 43 (1945)]. Ulcers in the anterior stomach were classified on the following basis:
2. 1-5 small ulcers (diameter of less than 3 mm)
3. 6 or more small ulcers or one big ulcer (diameter of more than 3 mm)
4. two or more big ulcers

dd-strain male mice [6] = experiment: Antiulcerogenic effect on Takagi's restraint-plus-water-immersing ulcer; type: in vivo; details: Mus musculus, ip; 150 mg/kg intraperitoneal
Experimental: 6.1 Antiulcerogenic effect on Takagi's restraint-plus-water-immersing ulcer: Groups each comprising 8-26 dd-strain male mice were used. The tests were carried out according to a method of Takagi, et al. [Chem. Pharm. Bull.; 12, 465 (1964)]. Sum of length of diseased parts in the glandular stomach was measured and it was compared with that of control group. The compounds of the present invention or DPH was given intraperitoneally immediately before the restraint and immersion in water.

[7] = tested on: normal rats and SART stress rats; experiment: Analgesic effect, pain induced by Bradykinin; type: in vivo, rats (SD-strain male); details: intraperitoneal 100 mg/kg
Experimental: 5.4 Method of measuring a pain induced by Bradykinin:
Groups each comprising 4-8 SD-strain male normal rats and SART stress rats to which SART stress had been applied for 4 days were used. The tests were carried out according to the method of Deffenu et al. [Deffenu, G., Pegrassi, L., & Fumachi. B.; J. Pharm. Pharmacol.; 18, 135 (1966)] and Blane method [Blane, G. F.; J. Pharm. Pharmacol.; 19, 367 (1967)]. The effect judged was shown by ratio of the rats in which the effect was recognized according to the method of Abe, et al. [Abe, Kaneko & Takagi; Folia Pharmacol. Japon.; 67, 9-14 (1971)].

dd-strain male mice [8] = experiment: Inhibitory effect on Tremorine-induced tremor; type: in vivo; details: 100 mg/kg intraperitoneal; tremorine 10 mg/Kg
Experimental: 9. Inhibitory effect on Tremorine-induced tremor:
Groups of mice each comprising 10-40 dd-strain male mice were used. Effect of the compounds of the present invention on tremor caused by tremorine was examined. The compounds of the present invention or DPH was given intraperitoneally. 45 minutes thereafter, 10 mg/Kg of tremorine was given intraperitoneally for inducing the tremor.

[9] = tested on: spontaneously hypertensive rats (SHR); experiment: Antihypertensive effect in spontaneously hypertensive rats; type: in vivo; details: 60 minutes
Experimental: 8. Antihypertensive effect: Groups of rats each comprising 6-9 spontaneously hypertensive rats (SHR) were used. The compounds of the present invention or DPH was given intraperitoneally. The rate of antihypertension 60 minutes after the administration was determined.

SMILES	Ach-induced contraction of the isolated deodedum (isolated duodenum; 5 mg/kg/day intraperitoneal) [%]	change in vivo at 100 mg/kg (ddY-strain male mice) [%]	change in vivo at 300 mg/kg (ddY-strain male mice) [%]	responders at 100 mg/kg ([2]; SART stress mice) [%]	responders at 100 mg/kg ([2]; normal mice) [%]	LD50 at 72 h ([3]; female) [mg/kg]	LD50 at 72 h ([3]; male) [mg/kg]	change in vivo at 100 mg/kg ([4]; SART stress mice) [%]	change in vivo at 100 mg/kg ([4]; normal mice) [%]	LD50 at 72 h ([5]; female) [mg/kg]	LD50 at 72 h ([5]; male) [mg/kg]	further results
NC(=O)C1(N2CCCCC2)CCN(CCCN2c3ccccc3CCc3ccccc32)CC1 [Carpipramine]	52 ± 6	–	–	–	–	–	–	–	–	–	–	Ach-induced contraction of the isolated deodedum (isolated duodenum; 10 mg/kg/day intraperitoneal): 110 ± 26%
CN(C)CCCN1c2ccccc2Sc2ccc(Cl)cc21 [Chlorpromazine]	–	–	–	–	–	–	–	–	–	–	–	Ach-induced contraction of the isolated deodedum (isolated duodenum; 0.1 mg/kg/day intraperitoneal): 45 ± 12%; Ach-induced contraction of the isolated deodedum (isolated duodenum; 0.5 mg/kg/day intraperitoneal): 81 ± 17%
COc1ccc(C2(c3ccc(OC)c(C)c3)NC(=O)NC2=O)cc1 (stereo not drawn) [Compound 3, 5-(4-methoxy-3-methylphenyl)-5-(4-methoxyphenyl)hydantoin]	–	76.6	93.9	40	30	> 5000	> 5000	91	47.4	> 5000	> 5000	Heart rate (SART stress mice; 100 mg/kg/day): 710 ± 83 min⁻¹; QRS-time (SART stress mice; 100 mg/kg/day): 13.1 ± 1.7 1/1000 sec; inhibition in vivo at 100 mg/kg ([1]; SART stress mice): 22%; inhibition in vivo at 100 mg/kg ([1]; normal mice): 2%; Analgesic effect ([4]; SART stress mice): 60.3%; Analgesic effect ([4]; normal mice): 44.3%
O=C1NC(=O)C(c2ccccc2)(c2ccc(F)cc2)N1 (stereo not drawn) [Compound 5, 5-(4-Fluorophenyl)-5-phenylhydantoin]	–	31	38.1	40	10	810	840	95	19.8	1100	1180	Antiulcerogenic effect on Shay's ulcer (operative ulcer) (Wistar-strain male rats): 20.7%; inhibition in vivo at 150 mg/kg (dd-strain male mice [6]): 22.8%
O=C1NC(=O)C(c2ccccc2)(c2ccc(O)cc2)N1 (stereo not drawn) [Compound 7, 5-(4-Hydroxyphenyl)-5-phenylhydantoin]	–	112	–	50	40	> 5000	> 5000	106	38.1	> 5000	> 5000	Analgesic effect ([7]; SART stress rats): 66.7%; Analgesic effect ([7]; normal rats): 50%; Heart rate (SART stress mice; 50 mg/kg/day): 690 ± 56 min⁻¹; QRS-time (SART stress mice; 50 mg/kg/day): 12.6 ± 1.5 1/1000 sec; Effect of prolongation of sleeping time (ddY-strain male mice; 20 mg/kg intraperitoneal): 48.0%; Effect of prolongation of sleeping time (ddY-strain male mice; 50 mg/kg intraperitoneal): 101.7%; inhibition in vivo at 100 mg/kg ([1]; SART stress mice): 31.3%; inhibition in vivo at 100 mg/kg ([1]; normal mice): 3.8%; Analgesic effect ([4]; SART stress mice): 76.5%; Analgesic effect ([4]; normal mice): 31.5%; Inhibitory effect on Tremorine-induced tremor (dd-strain male mice [8]): 35%
Cc1cc(C2(c3ccc(O)cc3)NC(=O)NC2=O)ccc1O (stereo not drawn) [Compound 30, 5-(4-Hydroxy-3-methylphenyl)-5-(4-hydroxyphenyl)hydantoin]	–	26.6	97.4	30	20	> 5000	> 5000	97.5	59.8	> 5000	> 5000	Heart rate (SART stress mice; 100 mg/kg/day): 731 ± 71 min⁻¹; QRS-time (SART stress mice; 100 mg/kg/day): 13.4 ± 1.1 1/1000 sec; inhibition in vivo at 100 mg/kg ([1]; SART stress mice): 25.2%; inhibition in vivo at 100 mg/kg ([1]; normal mice): 3.9%; Rate of antihypertension ([9]; 150 mg/Kg intraperitoneal): 10.9%; Rate of antihypertension ([9]; 300 mg/Kg intraperitoneal): 28.6%; Analgesic effect ([4]; SART stress mice): 43.6%; Analgesic effect ([4]; normal mice): 12.4%
O=C1NC(=O)C(c2ccc(O)cc2)(c2ccc(O)c(Cl)c2)N1 (stereo not drawn) [Compound 33, 5-(3-Chloro-4-hydroxyphenyl)-5-(4-hydroxyphenyl)hydantoin]	–	24.2	32.9	30	20	> 5000	> 5000	69.8	29.5	> 5000	> 5000	Antiulcerogenic effect on Shay's ulcer (operative ulcer) (Wistar-strain male rats): 54.2%; Inhibitory effect on Tremorine-induced tremor (dd-strain male mice [8]): 29%; inhibition in vivo at 150 mg/kg (dd-strain male mice [6]): 29.8%
CN1C(=O)CN=C(c2ccccc2)c2cc(Cl)ccc21 [Diazepam]	25 ± 6	–	–	–	–	–	–	–	–	–	–	–
CN(C)CCOC(c1ccccc1)c1ccccc1 [Diphenhydramine]	–	–	–	–	–	–	–	–	–	–	–	Ach-induced contraction of the isolated deodedum (isolated duodenum; 10 mg/kg/day intraperitoneal): 25 ± 5%
CN(C)CCCN1c2ccccc2CCc2ccccc21 [Imipramine]	44 ± 15	–	–	–	–	–	–	–	–	–	–	Ach-induced contraction of the isolated deodedum (isolated duodenum; 10 mg/kg/day intraperitoneal): 100 ± 4%
CCCC(C)(COC(N)=O)COC(N)=O [Meprobamate]	31 ± 2	–	–	–	–	–	–	–	–	–	–	–
COC(=O)[C@H]1[C@H]2C[C@@H]3c4[nH]c5cc(OC)ccc5c4CCN3C[C@H]2C[C@@H](OC(=O)c2cc(OC)c(OC)c(OC)c2)[C@@H]1OC [Reserpine]	–	–	–	–	–	–	–	–	–	–	–	Ach-induced contraction of the isolated deodedum (isolated duodenum; 0.1 mg/kg/day intraperitoneal): 75 ± 10%; Ach-induced contraction of the isolated deodedum (isolated duodenum; 0.5 mg/kg/day intraperitoneal): 104 ± 15%
